From patent US4550159A, “Anthracycline compounds” (Microbial Chemistry Research Foundation, priority 1982, dated 1985)
In brackets after ≈: the same amount, converted by molar mass.

Key:
[1] = test system: L1210 cells; assay: Cytotoxicity, RNA synthesis in L1210 cells; type: cell-based; conditions: Mus musculus, read-out: ID50, RNA synthesis
From the text: (§1) The results are shown below.

[2] = test system: L1210 leukemia cells; assay: Antitumor activity, increase of life span, L1210 leukemia cells in CDF1 mice; type: in vivo; conditions: intraperitoneal, 10 days
Description: To CDF1 mice were intraperitoneally transplanted 1×10^5 L1210 leukemia cells/mouse as a suspension. After the transplantation, each 0.25 ml of a solution containing the test compound was intraperitoneally injected for 10 days, beginning on the day of transplantation. […] The increase of life span (%) compared with the control group consisting of mice administered with physiological saline solution instead of the test compound was calculated from the following equation: [formula]

[3] = test system: L1210 cells; assay: Cytotoxicity, DNA synthesis in L1210 cells; type: cell-based; conditions: Mus musculus, read-out: ID50, DNA synthesis
From the text: as §1

[4] = test system: L1210 cells; assay: Cytotoxicity, growth of L1210 cells; type: cell-based; conditions: Mus musculus, read-out: ID50, growth
From the text: as §1

[5] = Solubility; type: physicochemical
[6] = test system: B. subtilis PCI 219; assay: Antimicrobial activity, MIC by agar dilution method; type: cell-based; conditions: Bacillus subtilis, PCI219; B. subtilis PCI 219, agar dilution method
From the text: (§2) The antimicrobial activity of ditrisarubicin according to the present invention was examined. It is expressed as minimum inhibitory concentration (MIC) determined by the agar dilution method.

[7] = test system: K. pnuemoniae PCI 602; assay: as above; type: cell-based; conditions: K. pnuemoniae PCI 602, agar dilution method
From the text: as §2

[8] = test system: S. aureus MS8710; assay: as above; type: cell-based; conditions: Staphylococcus aureus
From the text: as §2

[9] = test system: Coryn. bovis 1810; assay: as above; type: cell-based; conditions: Corynebacterium bovis; Coryn. bovis 1810, agar dilution method
From the text: as §2

[10] = test system: Prot. vulgaris OX19; assay: as above; type: cell-based; conditions: Proteus vulgaris
From the text: as §2

[11] = test system: S. aureus Smith; assay: as above; type: cell-based; conditions: Staphylococcus aureus
From the text: as §2

[12] = test system: S. aureus MS9610; assay: as above; type: cell-based; conditions: Staphylococcus aureus
From the text: as §2

[13] = test system: Pseu. aeruginosa A3; assay: as above; type: cell-based; conditions: Pseudomonas aeruginosa
From the text: as §2

[14] = test system: B. cereus ATCC 10702; assay: as above; type: cell-based; conditions: Bacillus cereus, ATCC10702; B. cereus ATCC 10702, agar dilution method
From the text: as §2

[15] = test system: E. coli NIHJ; assay: as above; type: cell-based; conditions: Escherichia coli
From the text: as §2

[16] = test system: Serr. marcessens; assay: as above; type: cell-based
From the text: as §2

[17] = test system: Sal. typhi T-63; assay: as above; type: cell-based; conditions: Salmonella enterica; Sal. typhi T-63, agar dilution method
From the text: as §2

[18] = test system: S. aureus 209 P; assay: as above; type: cell-based; conditions: Staphylococcus aureus
From the text: as §2

[19] = test system: M. lysodeikticus IFO 3333; assay: as above; type: cell-based; conditions: Micrococcus luteus, IFO3333; M. lysodeikticus IFO 3333, agar dilution method
From the text: as §2

[20] = test system: L1210 cells; assay: Cytotoxicity, protein synthesis in L1210 cells; type: cell-based; conditions: Mus musculus; for IC50: read-out: ID50, protein synthesis
From the text: as §1

Compound | IC50 [1] [µg/mL] | Increase of life span ([2]; 0.016 mg/kg/day) [%] | Increase of life span ([2]; 0.031 mg/kg/day) [%] | Increase of life span ([2]; 0.063 mg/kg/day) [%] | Increase of life span ([2]; 0.125 mg/kg/day) [%] | Increase of life span ([2]; 0.25 mg/kg/day) [%] | IC50 [3] [µg/mL] | IC50 [4] [ng/mL] | Solubility in methanol, acetone, ethyl acetate, chloroform, acetonitrile and DMSO [5] | Solubility in water, n-hexane and petroleum ether [5] | MIC [6] [µg/mL] | MIC [7] [µg/mL] | MIC [8] [µg/mL] | MIC [9] [µg/mL] | MIC [10] [µg/mL] | MIC [11] [µg/mL] | MIC [12] [µg/mL] | MIC [13] [µg/mL] | MIC [14] [µg/mL] | MIC [15] [µg/mL] | also measured
CCC1(O)CC(OC2CC(N(C)C)C(OC3CC4OC5CC(=O)C(C)OC5OC4C(C)O3)C(C)O2)c2c(O)c3c(c(O)c2C1OC1CC(N(C)C)C(OC2CC4OC5CC(=O)C(C)OC5OC4C(C)O2)C(C)O1)C(=O)c1cccc(O)c1C3=O (stereo not drawn) [Ditrisarubicin B] | 0.029 (≈ 0.0245 µM) | 114 | 136 | 148 | 159 | 108 | 0.29 (≈ 0.245 µM) | 1.1 (≈ 0.000931 µM) | soluble | sparingly soluble | 0.39 (≈ 0.33 µM) | 50 (≈ 42.3 µM) | 0.39 (≈ 0.33 µM) | < 0.2 | 50 (≈ 42.3 µM) | 0.78 (≈ 0.66 µM) | 0.39 (≈ 0.33 µM) | 25 (≈ 21.2 µM) | 0.39 (≈ 0.33 µM) | > 50 | MIC [16]: 50 µg/mL (≈ 42.3 µM); MIC [17]: > 50 µg/mL; MIC [18]: < 0.2 µg/mL; MIC [19]: < 0.2 µg/mL; inhibition at 10 µg/mL ([20]; with 10 γ/ml): 23.3%
CCC1(O)CC(OC2CC(N(C)C)C(OC3CC4OC5CC(=O)C(C)OC5OC4C(C)O3)C(C)O2)c2c(O)c3c(c(O)c2C1OC1CC(N(C)C)C(OC2CCC(OC4C=CC(=O)C(C)O4)C(C)O2)C(C)O1)C(=O)c1cccc(O)c1C3=O (stereo not drawn) [Ditrisarubicin C] | 0.014 (≈ 0.012 µM) | 142 | 182 | 142 | 148 | 114 | 0.14 (≈ 0.12 µM) | 0.7 (≈ 0.000601 µM) | soluble | sparingly soluble | 0.39 (≈ 0.335 µM) | > 50 | < 0.2 | < 0.2 | 50 (≈ 42.9 µM) | 0.39 (≈ 0.335 µM) | < 0.2 | 25 (≈ 21.5 µM) | 0.39 (≈ 0.335 µM) | > 50 | MIC [16]: 50 µg/mL (≈ 42.9 µM); MIC [17]: > 50 µg/mL; MIC [18]: < 0.2 µg/mL; MIC [19]: < 0.2 µg/mL; IC50 [20]: 3.2 µg/mL (≈ 2.75 µM)
CCC1(O)CC(OC2CC(N(C)C)C(OC3CC4OC5CC(=O)C(C)OC5OC4C(C)O3)C(C)O2)c2c(O)c3c(c(O)c2C1OC1CC(N(C)C)C(OC2CC(O)C(OC4CCC(=O)C(C)O4)C(C)O2)C(C)O1)C(=O)c1cccc(O)c1C3=O (stereo not drawn) [Ditrisarubicin A] | 0.023 (≈ 0.0194 µM) | 136 | 148 | 148 | 119 | 91 | 0.31 (≈ 0.262 µM) | 0.5 (≈ 0.000423 µM) | soluble | sparingly soluble | < 0.2 | 50 (≈ 42.3 µM) | < 0.2 | 0.78 (≈ 0.659 µM) | 50 (≈ 42.3 µM) | 0.39 (≈ 0.33 µM) | 0.39 (≈ 0.33 µM) | 12.5 (≈ 10.6 µM) | 0.39 (≈ 0.33 µM) | 50 (≈ 42.3 µM) | MIC [16]: 50 µg/mL (≈ 42.3 µM); MIC [17]: 50 µg/mL (≈ 42.3 µM); MIC [18]: < 0.2 µg/mL; MIC [19]: < 0.2 µg/mL; IC50 [20]: 8.5 µg/mL (≈ 7.18 µM)
